# From patent publication US11214803B2, “Modulators of YAP1 expression” (Ionis Pharmaceuticals, Inc., priority 2019, dated 2022)
# Strand notation (5' to 3'): a small letter for the sugar, then the base; units joined by * are phosphorothioate-linked, units joined directly phosphodiester-linked; [ ] holds rarer units or linkages, { } end groups; capitals alone tell only the bases. e = 2'-O-(2-methoxyethyl) (MOE); k = constrained ethyl (cEt); [5mC] = 5-methylcytosine; d = 2'-deoxy (DNA); m = 2'-O-methyl
# Tested on: Yap1 mRNA
# Test: Antisense inhibition of human Yap1 in SNU-449 cells by modified oligonucleotides, single dose (Example 5, RTS36584)
# Type: cell-based
# Summary of the method: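 Values are Yap1 mRNA as percent of untreated control cells, measured by quantitative real-time RT-PCR using RTS36584 and normalised to total RNA by RIBOGREEN. Cells were SNU-449, dosed by free uptake at 2,000 nM for approximately 48 hours.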
# [1] = Table 52, Yap1 mRNA, modified oligonucleotides targeting SEQ ID NO: 1 and 2
# [2] = Table 51, Yap1 mRNA remaining as percent of untreated control (UT), SNU-449 cells, single dose
# [3] = Table 45, Yap1 mRNA as percent of untreated control, SNU-449 cells, single dose
# [4] = Table 48, Yap1 mRNA level relative to untreated control, modified oligonucleotides targeting SEQ ID NO.: 1 and 2
# [5] = Table 39, SNU-449 cells, 10,000 cells per well, free uptake, 2,000 nM oligonucleotide, approx. 48 hours, RTS36584, normalized to RIBOGREEN, Yap1 mRNA relative to untreated control
# [6] = Table 46, Yap1 mRNA as percent of untreated control, SNU-449 cells, single dose
# [7] = Table 43 experiment, SNU-449 cells, 10,000 cells per well, free uptake, 2,000 nM, approximately 48 hours, RTS36584, Yap1 mRNA normalized to RIBOGREEN, relative to untreated control cells
# [8] = Table 41, SNU-449 cells, 10,000 cells per well, free uptake, 2,000 nM modified oligonucleotide, approximately 48 hours, RTS36584, normalized to RIBOGREEN, Yap1 mRNA relative to untreated control cells
# [9] = Table 40 (separate experiment), SNU-449 cells, 10,000 cells per well, free uptake, 2,000 nM oligonucleotide, approx. 48 hours, RTS36584, normalized to RIBOGREEN, Yap1 mRNA relative to untreated control
# [10] = Table 49, Yap1 mRNA level relative to untreated control, modified oligonucleotides targeting SEQ ID NO.: 1 and 2
# [11] = Table 42 (separate experiment), SNU-449 cells, 10,000 cells per well, free uptake, 2,000 nM modified oligonucleotide, approximately 48 hours, RTS36584, normalized to RIBOGREEN, Yap1 mRNA relative to untreated control cells
# [12] = Yap1 mRNA, percent of untreated control, modified oligonucleotides targeting SEQ ID NO: 1 and 2, Table 47
# [13] = Table 44 experiment, SNU-449 cells, 10,000 cells per well, free uptake, 2,000 nM, approximately 48 hours, RTS36584, Yap1 mRNA normalized to RIBOGREEN, relative to untreated control cells
substance,measurement,setting,value
1200843 (kA*k[5mC]*kT*d[5mC]*dT*mU*dA*dT*dA*dT*dG*dG*dT*kT*kT*kT; antisense) [Compound 1200843],YAP1 (% UT),[1],46 % UT
1197252 (antisense k[5mC]*kT*kT*dT*mG*dG*dA*dA*dG*dA*dT*d[5mC]*dT*kG*kA*kA) [Compound 1197252],YAP1 (% UT),[2],53 % UT
"1198919 (A_{ks}G^{m}C_{ds}A_{ds}^{m}C_{ds}T_{ds}T_{ds}T_{ds}T_{ds}A_{ds}^{m}C_{ds}A_{ks}T_{ds}T_{ks}A_{ds}G_{k}; modified gapmer, phosphorothioate, as printed in the source, key not given here) [Compound 1198919]",YAP1 (% UTC),[3],60 % UTC
1198290 (kT*kG*kG*dA*dA*dA*dT*dT*dG*dT*d[5mC]*dT*k[5mC]*eA*kT*eG; antisense) [Compound 1198290],YAP1 (% UT),[4],15 % UT
1198391 (kG*dA*dG*dG*dT*dA*dT*dA*dA*d[5mC]*dT*kG*eG*kG*e[5mC]*kA) [Compound 1198391],YAP1 (% UTC),[5],29 % UTC
1198842 (kG*kT*dG*d[5mC]*dT*dT*dT*dG*dG*dA*dA*kG*eA*kT*e[5mC]*kT; antisense) [Compound 1198842],YAP1 (% UT),[6],37 % UT
1198281 (kG*kA*d[5mC]*dT*dA*dA*dG*dT*dA*dA*dG*eG*eT*eT*kT*k[5mC]; antisense) [Compound 1198281],YAP1 (% UTC),[7],71 % UTC
1198319 (k[5mC]*kT*kT*dT*dG*dG*dA*dA*dG*dA*dT*d[5mC]*kT*eG*kA*eA; antisense) [Compound 1198319],YAP1 (% UT),[4],47 % UT
1200806 (kT*kG*kA*dG*dG*mU*dA*dT*dA*dA*d[5mC]*dT*dG*kG*kG*k[5mC]; antisense) [Compound 1200806],YAP1 (% UT),[1],24 % UT
1198315 (kT*kT*kA*dA*dG*d[5mC]*dA*d[5mC]*dT*dT*dT*dT*kA*e[5mC]*kA*eT; antisense) [Compound 1198315],YAP1 (% UT),[4],85 % UT
1198632 (kG*kA*dA*dA*dT*dT*dG*dT*d[5mC]*dT*d[5mC]*dA*kT*eG*k[5mC]*e[5mC]; antisense) [Compound 1198632],YAP1 (% UTC),[8],21 % UTC
1198716 (kA*eA*kT*dT*dG*dT*d[5mC]*dT*d[5mC]*dA*dT*dG*e[5mC]*e[5mC]*kT*kT; antisense) [Compound 1198716],YAP1 (% UTC),[9],27 % UTC
1198380 (kA*dG*dA*dG*dT*dA*dT*dG*dT*dG*dG*k[5mC]*eA*kA*eT*kA; antisense) [Compound 1198380],YAP1 (% UTC),[5],18 % UTC
1200850 (kT*kA*kA*dT*dA*mU*dT*dG*d[5mC]*dA*dA*dT*d[5mC]*kT*kG*kT; antisense) [Compound 1200850],YAP1 (% UT),[1],83 % UT
1198422 (k[5mC]*dT*dT*dA*dT*dA*dT*dG*dG*dT*dT*kT*eT*kG*eT*kG; antisense) [Compound 1198422],YAP1 (% UTC),[5],18 % UTC
1198392 (kA*dA*d[5mC]*dA*d[5mC]*dT*dG*dA*dG*dG*dT*kA*eT*kA*eA*k[5mC]; antisense) [Compound 1198392],YAP1 (% UTC),[5],48 % UTC
1198571 (antisense kA*kG*k[5mC]*dA*d[5mC]*dT*dT*dT*dT*dA*d[5mC]*dA*kT*kT*kA*eG) [Compound 1198571],YAP1 (% UT),[10],32 % UT
1198866 (kT*kA*dA*dT*dA*dT*dT*dG*d[5mC]*dA*dA*kT*e[5mC]*kT*eG*kT; antisense) [Compound 1198866],YAP1 (% UT),[6],60 % UT
1197248 (antisense kT*kT*kA*dA*mG*d[5mC]*dA*d[5mC]*dT*dT*dT*dT*dA*k[5mC]*kA*kT) [Compound 1197248],YAP1 (% UT),[2],75 % UT
1198426 (kA*dA*d[5mC]*dT*d[5mC]*dT*dT*dA*dT*dA*dT*kG*eG*kT*eT*kT; antisense) [Compound 1198426],YAP1 (% UTC),[9],111 % UTC
1198307 (kT*kT*kA*d[5mC]*dA*dT*dT*dA*dG*dG*dA*dA*k[5mC]*eA*kA*eG; antisense) [Compound 1198307],YAP1 (% UT),[4],49 % UT
1198228 (kA*kA*dG*d[5mC]*dA*d[5mC]*dT*dT*dT*dT*dA*e[5mC]*eA*eT*kT*kA) [Compound 1198228],YAP1 (% UTC),[11],54 % UTC
1198833 (kA*kG*d[5mC]*dA*d[5mC]*dT*dT*dT*dT*dA*d[5mC]*kA*eT*kT*eA*kG; antisense) [Compound 1198833],YAP1 (% UT),[6],54 % UT
1198698 (antisense kA*kA*dG*dT*dG*dT*dA*dT*dG*dT*d[5mC]*dA*kG*eA*kA*eG) [Compound 1198698],YAP1 (% UTC),[11],12 % UTC
1198794 (antisense kA*eA*k[5mC]*dT*dT*dT*dA*dA*dA*dG*dT*dG*eT*eA*kT*kG) [Compound 1198794],YAP1 (% UTC),[8],74 % UTC
1074799 (kT*kG*k[5mC]*dT*dT*dT*dG*dG*dA*dA*dG*dA*dT*k[5mC]*kT*kG) [Compound 1074799],YAP1 (% UT),[12],21 % UT
1198547 (antisense kG*kG*kA*dA*dA*dT*dT*dG*dT*d[5mC]*dT*d[5mC]*kA*kT*kG*e[5mC]) [Compound 1198547],YAP1 (% UT),[10],27 % UT
1200820 (kG*kG*kA*dA*dG*mA*dT*d[5mC]*dT*dG*dA*dA*dA*k[5mC]*kT*k[5mC]; antisense) [Compound 1200820],YAP1 (% UT),[1],24 % UT
1197193 (antisense AGGATGCATGGTTTTT; chemistry not fully specified) [Compound 1197193],YAP1 (% UT),[12],15 % UT
1198258 (kA*kT*dA*dT*dT*dG*d[5mC]*dA*dA*dT*d[5mC]*eT*eG*eT*k[5mC]*kT; antisense) [Compound 1198258],YAP1 (% UTC),[7],52 % UTC
1198882 (kA*kG*dT*dA*dA*dG*dG*dT*dT*dT*d[5mC]*k[5mC]*e[5mC]*kA*eG*kA; antisense) [Compound 1198882],YAP1 (% UT),[6],56 % UT
1197274 (kA*kG*kT*dA*mA*dG*dG*dT*dT*dT*d[5mC]*d[5mC]*d[5mC]*kA*kG*kA) [Compound 1197274],YAP1 (% UT),[2],31 % UT
1198506 (kA*kT*dA*dT*dG*dG*dT*dT*dT*dT*dG*eT*kG*eT*kG*eT; antisense) [Compound 1198506],YAP1 (% UTC),[13],47 % UTC
1198935 (kG*kA*dT*dT*dT*dA*dG*dG*dA*dT*dG*k[5mC]*dA*kT*dG*kG; antisense) [Compound 1198935],YAP1 (% UTC),[3],18 % UTC
1198793 (antisense k[5mC]*eT*kT*dT*dA*dA*dA*dG*dT*dG*dT*dA*eT*eG*kT*k[5mC]) [Compound 1198793],YAP1 (% UTC),[8],34 % UTC
1198316 (kG*kG*kA*dA*dG*dA*dT*d[5mC]*dT*dG*dA*dA*kA*e[5mC]*kT*e[5mC]; antisense) [Compound 1198316],YAP1 (% UT),[4],49 % UT
1197180 (antisense kA*kT*kG*dG*dA*dA*dA*dT*dT*dG*dT*d[5mC]*dT*k[5mC]*kA*kT) [Compound 1197180],YAP1 (% UT),[12],47 % UT
1197280 (kT*kG*kT*d[5mC]*mU*d[5mC]*dA*dT*dG*d[5mC]*d[5mC]*dT*dT*kA*kT*kA; antisense) [Compound 1197280],YAP1 (% UT),"Table 50, Yap1 mRNA remaining as percent of untreated control (UT), SNU-449 cells, single dose",53 % UT
1198820 (kT*kA*dT*dA*dT*dT*dA*dG*dA*dG*dT*kA*eT*kG*eT*kG; antisense) [Compound 1198820],YAP1 (% UT),[6],62 % UT
1198477 (antisense kG*kA*dG*dG*dT*dA*dT*dA*dA*d[5mC]*dT*eG*kG*eG*k[5mC]*eA) [Compound 1198477],YAP1 (% UTC),[13],47 % UTC
1197270 (kT*kT*kA*dA*mA*dG*dT*dG*dT*dA*dT*dG*dT*k[5mC]*kA*kG) [Compound 1197270],YAP1 (% UT),[2],2 % UT
1198349 (kA*kT*kG*dT*dA*dA*dT*dA*dT*dT*dG*d[5mC]*kA*eA*kT*e[5mC]) [Compound 1198349],YAP1 (% UT),[10],85 % UT
1198481 (antisense k[5mC]*kT*dT*dT*dT*dA*d[5mC]*dA*dT*dT*dA*eG*kG*eA*kA*e[5mC]) [Compound 1198481],YAP1 (% UTC),[7],72 % UTC
1197200 (antisense kT*kT*kA*dT*dA*dT*dG*dG*dT*dT*dT*dT*dG*kT*kG*kT) [Compound 1197200],YAP1 (% UT),[4],49 % UT
1198259 (kA*kA*dT*dA*dT*dT*dG*d[5mC]*dA*dA*dT*e[5mC]*eT*eG*kT*k[5mC]; antisense) [Compound 1198259],YAP1 (% UTC),[7],51 % UTC
1198717 (kA*eA*kA*dT*dT*dG*dT*d[5mC]*dT*d[5mC]*dA*dT*eG*e[5mC]*k[5mC]*kT; antisense) [Compound 1198717],YAP1 (% UTC),[9],41 % UTC
1096369 (antisense kG*kT*kG*d[5mC]*dT*dT*dT*dG*dG*dA*dA*dG*dA*kT*k[5mC]*kT) [Compound 1096369],YAP1 (% UT),[12],45 % UT
1198773 (kA*e[5mC]*kT*d[5mC]*dT*dT*dA*dT*dA*dT*dG*dG*eT*eT*kT*kT; antisense) [Compound 1198773],YAP1 (% UTC),[8],58 % UTC
